According to PubChem BioAssay AID1963827 (Molecular Pharmacology Branch, DTP, NCI, 2024):
pIC50: −log10 of the molar value.

Tested on: 994946-033-R-J1-PDC complex spheroid viability
Test: Anticancer human tumor 994946-033-R-J1-PDC patient-derived melanoma cell line growth inhibition [POLQ]
Settings: for pIC50: curve of first compound; for viability, T/C: stronger effect = lower value
Procedure, shortened: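 Complex spheroid viability model combining PDC tumour cells with endothelial (HUVEC) and MSC stromal cells. Novobiocin, ART-558 or RP6685 were tested singly and in combination with standard and investigational anticancer drugs. Each was titrated in half-log steps from near clinical Cmax, or from 10 microM where Cmax was unknown.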

[1] = second compound 0.0316 µM, first compound 0.0316 µM
[2] = second compound 0.0316 µM, first compound 0.1 µM
[3] = second compound 0.0316 µM, first compound 0.316 µM
[4] = second compound 0.0316 µM, first compound 1 µM
[5] = second compound 0.0316 µM, first compound 3.16 µM
[6] = second compound 0.0316 µM, first compound 10 µM
[7] = second compound 0.1 µM, first compound 0.0316 µM
[8] = second compound 0.1 µM, first compound 0.1 µM
[9] = second compound 0.1 µM, first compound 0.316 µM
[10] = second compound 0.1 µM, first compound 1 µM
[11] = second compound 0.1 µM, first compound 3.16 µM
[12] = second compound 0.1 µM, first compound 10 µM
[13] = second compound 0.316 µM, first compound 0.0316 µM
[14] = second compound 0.316 µM, first compound 0.1 µM
[15] = second compound 0.316 µM, first compound 0.316 µM
[16] = second compound 0.316 µM, first compound 1 µM
[17] = second compound 0.316 µM, first compound 3.16 µM
[18] = second compound 0.316 µM, first compound 10 µM
[19] = second compound 1 µM, first compound 0.0316 µM
[20] = second compound 1 µM, first compound 0.1 µM
[21] = second compound 1 µM, first compound 0.316 µM
[22] = second compound 1 µM, first compound 1 µM
[23] = second compound 1 µM, first compound 3.16 µM
[24] = second compound 1 µM, first compound 10 µM
[25] = second compound 3.16 µM, first compound 0.0316 µM
[26] = second compound 3.16 µM, first compound 0.1 µM
[27] = second compound 3.16 µM, first compound 0.316 µM
[28] = second compound 3.16 µM, first compound 1 µM
[29] = second compound 3.16 µM, first compound 3.16 µM
[30] = second compound 3.16 µM, first compound 10 µM
[31] = second compound 10 µM, first compound 0.0316 µM
[32] = second compound 10 µM, first compound 0.1 µM
[33] = second compound 10 µM, first compound 0.316 µM
[34] = second compound 10 µM, first compound 1 µM
[35] = second compound 10 µM, first compound 3.16 µM
[36] = second compound 10 µM, first compound 10 µM
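Note: spheroids exposed to drugs for 7 days.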
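Throughout, for viability, T/C: 100% = DMSO vehicle treated spheroids.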

SMILES: CC(=O)O[C@H]1C(=O)[C@@]2(C)[C@H]([C@H](OC(=O)c3ccccc3)[C@]3(O)C[C@H](OC(=O)[C@H](O)[C@@H](NC(=O)c4ccccc4)c4ccccc4)C(C)=C1C3(C)C)[C@]1(OC(C)=O)CO[C@@H]1C[C@@H]2O + COC1C(OC(N)=O)C(O)C(Oc2ccc3c(O)c(NC(=O)c4ccc(O)c(CC=C(C)C)c4)c(=O)oc3c2C)OC1(C)C
- pIC50 (second compound 0.0316 µM): > 8.02
- pIC50 (second compound 0.1 µM): > 8.02
- pIC50 (second compound 0.316 µM): > 8.02
- pIC50 (second compound 1 µM): > 8.02
- pIC50 (second compound 3.16 µM): > 8.02
- pIC50 (second compound 10 µM): > 8.02
- viability, T/C (second compound 0.0316 µM, first compound 0.00949 µM): 23.9%
- viability, T/C (second compound 0.0316 µM, first compound 0.03 µM): 25.3%
- viability, T/C (second compound 0.0316 µM, first compound 0.0949 µM): 16.4%
- viability, T/C (second compound 0.0316 µM, first compound 0.3 µM): 12.5%
- viability, T/C (second compound 0.0316 µM, first compound 0.949 µM): 12%
- viability, T/C (second compound 0.0316 µM, first compound 3 µM): 10.4%
- viability, T/C (second compound 0.1 µM, first compound 0.00949 µM): 24.4%
- viability, T/C (second compound 0.1 µM, first compound 0.03 µM): 20.5%
- viability, T/C (second compound 0.1 µM, first compound 0.0949 µM): 14.5%
- viability, T/C (second compound 0.1 µM, first compound 0.3 µM): 11.9%
- viability, T/C (second compound 0.1 µM, first compound 0.949 µM): 14.2%
- viability, T/C (second compound 0.1 µM, first compound 3 µM): 9.19%
- viability, T/C (second compound 0.316 µM, first compound 0.00949 µM): 20.4%
- viability, T/C (second compound 0.316 µM, first compound 0.03 µM): 23.3%
- viability, T/C (second compound 0.316 µM, first compound 0.0949 µM): 23.7%
- viability, T/C (second compound 0.316 µM, first compound 0.3 µM): 17.2%
- viability, T/C (second compound 0.316 µM, first compound 0.949 µM): 15.4%
- viability, T/C (second compound 0.316 µM, first compound 3 µM): 14.9%
- viability, T/C (second compound 1 µM, first compound 0.00949 µM): 22.8%
- viability, T/C (second compound 1 µM, first compound 0.03 µM): 18%
- viability, T/C (second compound 1 µM, first compound 0.0949 µM): 17.1%
- viability, T/C (second compound 1 µM, first compound 0.3 µM): 18.5%
- viability, T/C (second compound 1 µM, first compound 0.949 µM): 14.7%
- viability, T/C (second compound 1 µM, first compound 3 µM): 10.9%
- viability, T/C (second compound 3.16 µM, first compound 0.00949 µM): 23.8%
- viability, T/C (second compound 3.16 µM, first compound 0.03 µM): 20.4%
- viability, T/C (second compound 3.16 µM, first compound 0.0949 µM): 19.9%
- viability, T/C (second compound 3.16 µM, first compound 0.3 µM): 15.4%
- viability, T/C (second compound 3.16 µM, first compound 0.949 µM): 15.1%
- viability, T/C (second compound 3.16 µM, first compound 3 µM): 11.3%
- viability, T/C (second compound 10 µM, first compound 0.00949 µM): 21.5%
- viability, T/C (second compound 10 µM, first compound 0.03 µM): 26%
- viability, T/C (second compound 10 µM, first compound 0.0949 µM): 16.2%
- viability, T/C (second compound 10 µM, first compound 0.3 µM): 12.8%
- viability, T/C (second compound 10 µM, first compound 0.949 µM): 14.9%
- viability, T/C (second compound 10 µM, first compound 3 µM): 8.96%

SMILES: COc1cc(C2c3cc4c(cc3C(OC3OC5COC(C)OC5C(O)C3O)C3COC(=O)C23)OCO4)cc(OC)c1O (stereo unspecified) + COC1C(OC(N)=O)C(O)C(Oc2ccc3c(O)c(NC(=O)c4ccc(O)c(CC=C(C)C)c4)c(=O)oc3c2C)OC1(C)C
- pIC50 (second compound 0.0316 µM): 6.16
- pIC50 (second compound 0.1 µM): 6.63
- pIC50 (second compound 0.316 µM): 6.60
- pIC50 (second compound 1 µM): 6.27
- pIC50 (second compound 3.16 µM): 6.56
- pIC50 (second compound 10 µM): 6.23
- viability, T/C [1]: 77.1%
- viability, T/C [2]: 78.6%
- viability, T/C [3]: 46%
- viability, T/C [4]: 61%
- viability, T/C [5]: 12.8%
- viability, T/C [6]: 6.71%
- viability, T/C [7]: 95.9%
- viability, T/C [8]: 58.9%
- viability, T/C [9]: 44%
- viability, T/C [10]: 38.7%
- viability, T/C [11]: 13%
- viability, T/C [12]: 7.35%
- viability, T/C [13]: 118%
- viability, T/C [14]: 70.7%
- viability, T/C [15]: 40.2%
- viability, T/C [16]: 36.7%
- viability, T/C [17]: 14.5%
- viability, T/C [18]: 6.69%
- viability, T/C [19]: 88.3%
- viability, T/C [20]: 67.1%
- viability, T/C [21]: 63.5%
- viability, T/C [22]: 41.2%
- viability, T/C [23]: 18.5%
- viability, T/C [24]: 7.04%
- viability, T/C [25]: 109%
- viability, T/C [26]: 60.7%
- viability, T/C [27]: 53.2%
- viability, T/C [28]: 36.3%
- viability, T/C [29]: 10.2%
- viability, T/C [30]: 7.78%
- viability, T/C [31]: 111%
- viability, T/C [32]: 70.2%
- viability, T/C [33]: 57.8%
- viability, T/C [34]: 52.3%
- viability, T/C [35]: 14.9%
- viability, T/C [36]: 5.69%

SMILES: COc1cccc2c1C(=O)c1c(O)c3c(c(O)c1C2=O)CC(O)(C(=O)CO)CC3OC1CC(N)C(O)C(C)O1 (stereo unspecified) + COC1C(OC(N)=O)C(O)C(Oc2ccc3c(O)c(NC(=O)c4ccc(O)c(CC=C(C)C)c4)c(=O)oc3c2C)OC1(C)C
- pIC50 (second compound 0.0316 µM): > 7.50
- pIC50 (second compound 0.1 µM): > 7.50
- pIC50 (second compound 0.316 µM): > 7.50
- pIC50 (second compound 1 µM): > 7.50
- pIC50 (second compound 3.16 µM): > 7.50
- pIC50 (second compound 10 µM): > 7.50
- viability, T/C [1]: 30%
- viability, T/C [2]: 9.63%
- viability, T/C [3]: 3%
- viability, T/C [4]: 2.19%
- viability, T/C [5]: 0.88%
- viability, T/C [6]: 1.18%
- viability, T/C [7]: 38.2%
- viability, T/C [8]: 11.2%
- viability, T/C [9]: 1.88%
- viability, T/C [10]: 1.88%
- viability, T/C [11]: 1.36%
- viability, T/C [12]: 0.62%
- viability, T/C [13]: 29.7%
- viability, T/C [14]: 8.65%
- viability, T/C [15]: 5.33%
- viability, T/C [16]: 1.37%
- viability, T/C [17]: 0.61%
- viability, T/C [18]: 1.78%
- viability, T/C [19]: 38.5%
- viability, T/C [20]: 21.4%
- viability, T/C [21]: 2.96%
- viability, T/C [22]: 0.39%
- viability, T/C [23]: 0.88%
- viability, T/C [24]: 0.7%
- viability, T/C [25]: 29.7%
- viability, T/C [26]: 7.94%
- viability, T/C [27]: 3.1%
- viability, T/C [28]: 0.41%
- viability, T/C [29]: 0.77%
- viability, T/C [30]: 0.92%
- viability, T/C [31]: 29.2%
- viability, T/C [32]: 9.79%
- viability, T/C [33]: 2.2%
- viability, T/C [34]: 0.59%
- viability, T/C [35]: 1.28%
- viability, T/C [36]: 0.88%
